Results reported in patent publication US20200368267A1, “PROPHYLACTIC AND/OR THERAPEUTIC AGENT FOR AMYOTROPHIC LATERAL SCLEROSIS” (KYOTO UNIVERSITY, priority 2017, published 2020).
Counter-ions that a name gives are not always drawn.

test system: mutant SOD1 ALS MNs (ALS1); assay: MN survival assay and high content analysis; type: cell-based, human; details: added to MNs with bosutinib treatment
Method: (§1) iPS cell cells containing LNI cassette were dissociated into single cells using Accutase, and seeded together with 1 μg/ml of doxycycline (TAKARA, Kusatsu, Japan) in N3 medium containing 1 μM retinoic acid, 1 μM SAG, 10 ng/ml BDNF, 10 ng/ml GDNF, and 10 ng/ml NT-3 on a 96 well plate (BD Bioscience) coated with Matrigel. The cells were fixed and stained on days 7 and 14. The number of viable MNs stained with βIII-tubulin was quantified by IN Cell Analyzer 6000 and expressed as the number of day 14/day 7. […] In this assay, therefore, βIII-tubulin positive neurons were defined as MN. Neurite and cell body were detected by optimized fluorescence levels, and the number of cell bodies having neurite was counted as the number of surviving neurons using IN Cell Developer toolbox software 1.9.
Short interfering RNA (siRNA) was purchased from Life Technologies (siRNA ID of Src siRNA 1: s13414; siRNA ID of Src siRNA 2: s13413; siRNA ID of c-Abl siRNA 1: s866; siRNA ID of c-Abl siRNA 2: s864; siRNA ID of mTOR siRNA: s604). Scramble siRNA purchased from Life Technologies was used as a negative control of siRNA. iPS cells were dissociated and plated with dox in a 96 well plate. On day 7, siRNA was transfected with Lipofectamine RNAiMAX (Thermo Fisher Scientific). Viable MN was evaluated 4 days after transfection by immunostaining with βIII-tubulin, followed by analysis with IN Cell Analyzer 6000 and IN Cell Developer toolbox software 1.9.

In the case of `CCN(CC)CCCC(C)Nc1ccnc2cc(Cl)ccc12` (centres unmarked) [chloroquine], the “effect of autophagy inhibitor on the protective effect of bosutinib in MN survival assay” value is reported as “decreased the protective effect of bosutinib”.

same assay, conditions: mutant SOD1 ALS MNs (ALS1); compound added day 7, counted day 14

`Cc1ccc(NC(=O)c2ccc(CN3CCN(C)CC3)cc2)cc1Nc1nccc(-c2cccnc2)n1` [imatinib] was tested, and the MN survival was “increased MN survival”.
In the case of `Cc1cn(-c2cc(NC(=O)c3ccc(C)c(Nc4nccc(-c5cccnc5)n4)c3)cc(C(F)(F)F)c2)cn1` [nilotinib], the MN survival is reported as “increased MN survival”.

test system: MNs with mutant SOD1 gene (L144FVX); assay: Large scale screen using ALS MN (MN survival readout); type: cell-based, human; details: 50 μM, positive control assays
Method: as §1
iPS cell cells containing LNI cassette were dissociated into single cells using Accutase, and seeded together with 1 ng/ml of doxycycline in N3 medium containing 1 μM RA, 1 μM SAG, 10 ng/ml BDNF, 10 ng/ml GDNF and 10 ng/ml NT-3 on a 96 well plate (BD Bioscience) coated with Matrigel. The libraries used for drug screening were Microsource US Drugs (Microsource Discovery Systems), Microsource International Drugs (Microsource Discovery Systems), and kinase inhibitor purchased from EMD and Selleck Chemicals. Using Integrity and Nextbio data base, existing drugs and test drugs in clinical trials were selected from these libraries and used for throughput screening. […] DMSO was used as a negative control, and kenpaullone, which is a candidate drug for ALS treatment, was used as a positive control. The number of viable MNs stained with βIII-tubulin was quantified by IN Cell Analyzer 6000.

`O=C1Cc2c([nH]c3ccc(Br)cc23)-c2ccccc2N1` [kenpaullone] was tested, and the “positive control effect on ALS MN survival” value was “positive effect was confirmed”.

same assay, conditions: compounds at final concentration 10 μM added on day 7, cells fixed and stained on day 14; viable MNs stained with βIII-tubulin

Going from `CCOc1ccn(-c2ccc(F)cc2)c(=O)c1C(=O)Nc1ccc(Oc2ccnc(N)c2Cl)c(F)c1` [BMS 777607] to `COCCNCc1ccc(-c2cc3nccc(Oc4ccc(NC(=S)NC(=O)Cc5ccc(F)cc5)cc4F)c3s2)nc1` [MGCD-265], the MN index falls from 8.551 to 7.623.

Compared with `Cc1nc(N)sc1-c1ccnc(Nc2ccc(N3CCOCC3)cc2)n1` [CYC116], `Cc1ccc(Nc2nccc(N(C)c3ccc4c(C)n(C)nc4c3)n2)cc1S(N)(=O)=O` [pazopanib hydrochloride] is higher in MN index: 8.142 for the first, 9.533 for the second.

First: O=C(c1ccc(/C=C/c2n[nH]c3ccccc23)cc1)N1CCNCC1 [KW 2449]
Second: CNC(=O)c1ccccc1Sc1ccc2c(/C=C/c3ccccn3)n[nH]c2c1 [axitinib]
The MN index of the first is higher: 7.722 for the first, 7.353 for the second.

First: C[C@@H](Oc1cc(-c2cnn(C3CCNCC3)c2)cnc1N)c1c(Cl)ccc(F)c1Cl [PF-2341066]
Second: Cc1cc(Nc2cc(N3CCN(C)CC3)nc(Sc3ccc(NC(=O)C4CC4)cc3)n2)n[nH]1 [VX-680]
The MN index of the first is lower: 7.595 for the first, 9.578 for the second.

Compared with `Cc1c(C)c2c(c(C)c1O)CCC(C)(CCCC(C)CCCC(C)CCCC(C)C)O2` (stereo not drawn) [alpha-tochopherol], `CCN(CCCCOC(=O)c1ccc(OC)c(OC)c1)C(C)Cc1ccc(OC)cc1` (centres unmarked) [mebeverine hydrochloride] is lower in MN index: 9.456 for the first, 6.856 for the second.

Going from `CCN(CC)Cc1cc(Nc2ccnc3cc(Cl)ccc23)ccc1O` [amodiaquine dihydrochloride] to `COc1cc2nccc(Oc3ccc(NC(=O)Nc4cc(C)on4)c(Cl)c3)c2cc1OC` [tivozanib], the MN index rises from 8.98 to 17.26.

Going from `CN1CCc2cccc3c2[C@H]1Cc1ccc(O)c(O)c1-3` [apomorphine hydrochloride] to `COc1ccc2c(c1OC)C(=O)O[C@@H]2[C@H]1c2cc3c(cc2CCN1C)OCO3` [hydrastine (1R, 9S)], the MN index rises from 7.257 to 7.525.

Compared with `CN(C)CCCn1cc(C2=C(c3c[nH]c4ccccc34)C(=O)NC2=O)c2ccccc21` [bisindolylmaleimide I], `Cn1cc(C2=C(c3cn(C4CCN(Cc5ccccn5)CC4)c4ccccc34)C(=O)NC2=O)c2ccccc21` [enzastaurin] is higher in MN index: 7.963 for the first, 9.841 for the second.

Compared with `COc1cc(Nc2c(C#N)cnc3cc(OCCCN4CCN(C)CC4)c(OC)cc23)c(Cl)cc1Cl` [bosutinib (SKI-606), bosutinib], `Cc1nc(Nc2ncc(C(=O)Nc3c(C)cccc3Cl)s2)cc(N2CCN(CCO)CC2)n1` [dasatinib] is lower in MN index: 7.196 for the first, 6.659 for the second.

Compared with `CCCC1O[C@@H]2C[C@H]3[C@@H]4CCC5=CC(=O)C=C[C@]5(C)[C@H]4[C@@H](O)C[C@]3(C)[C@]2(C(=O)CO)O1` (some centres unmarked) [budesonide], `CC1(C)O[C@@H]2C[C@H]3[C@@H]4C[C@H](F)C5=CC(=O)C=C[C@]5(C)[C@H]4[C@@H](O)C[C@]3(C)[C@]2(C(=O)CO)O1` [flunisolide] is lower in MN index: 10.27 for the first, 7.857 for the second.

First: CCCCOC(=O)c1ccc(N)cc1 [butamben]
Second: O=C(O)CCC(=O)c1ccc(-c2ccccc2)cc1 [fenbufen]
The MN index of the first is higher: 7.391 for the first, 7.224 for the second.

First: Oc1ccc(O)cc1 [hydroquinone]
Second: O=C(/C=C/C=C/c1ccc2c(c1)OCO2)N1CCCCC1 [piperine]
The MN index of the first is higher: 7.957 for the first, 7.391 for the second.

Compared with `Cc1cc2nc3c(=O)[nH]c(=O)nc-3n(C[C@H](O)[C@H](O)[C@H](O)CO)c2cc1C` [riboflavin], `CCN(CC)CCNC(=O)c1c(C)[nH]c(/C=C2\C(=O)Nc3ccc(F)cc32)c1C` [sunitinib malate] is lower in MN index: 9.554 for the first, 8.133 for the second.

test system: mutant SOD1 Tg mice; assay: ALS model mouse (Tg-G93A SOD1 mouse); type: in vivo; details: 5 mg/kg intraperitoneal from 8th week for 5 weeks; mean±SD, n=26 per group; Kaplan-Meier

`COc1cc(Nc2c(C#N)cnc3cc(OCCCN4CCN(C)CC4)c(OC)cc23)c(Cl)cc1Cl` [bosutinib (SKI-606), bosutinib] was tested, and the disease onset was 123.2 ± 9.1 days.

Compound `COc1cc(Nc2c(C#N)cnc3cc(OCCCN4CCN(C)CC4)c(OC)cc23)c(Cl)cc1Cl` [bosutinib (SKI-606), bosutinib] has a survival time of 164.1 ± 9.4 days.
